{"source": "ChEMBL document CHEMBL4043168", "about": "“The design and SAR of a novel series of 2-aminopyridine based LRRK2 inhibitors” (Bioorg Med Chem Lett, 2017)", "key": {"[1]": {"molecular_target": "Tyrosine-protein kinase Yes (Homo sapiens) (UniProt P07947)", "sequence (P07947 2-543 limits assumed)": "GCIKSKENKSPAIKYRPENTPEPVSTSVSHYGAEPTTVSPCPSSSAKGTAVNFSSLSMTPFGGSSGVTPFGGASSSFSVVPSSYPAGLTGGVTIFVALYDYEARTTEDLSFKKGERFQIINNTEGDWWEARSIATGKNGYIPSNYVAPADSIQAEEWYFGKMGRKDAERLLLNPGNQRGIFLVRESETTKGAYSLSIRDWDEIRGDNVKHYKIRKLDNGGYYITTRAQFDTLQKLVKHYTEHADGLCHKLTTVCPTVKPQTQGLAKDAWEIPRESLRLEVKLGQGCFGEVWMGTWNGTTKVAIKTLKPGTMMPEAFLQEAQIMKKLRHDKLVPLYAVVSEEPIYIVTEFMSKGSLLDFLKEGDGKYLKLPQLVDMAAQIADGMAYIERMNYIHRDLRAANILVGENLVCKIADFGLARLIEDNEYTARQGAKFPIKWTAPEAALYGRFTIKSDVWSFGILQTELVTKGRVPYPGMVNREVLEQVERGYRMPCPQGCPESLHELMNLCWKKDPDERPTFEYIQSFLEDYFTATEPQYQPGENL", "assay": "Inhibition of YES activation Loop (QGAKFPIKWTAPEAALYGR) in human PBMC at 1 uM"}, "[2]": {"molecular_target": "T1, Interleukin-1 receptor-associated kinase 4 (Homo sapiens) (UniProt Q9NWZ3)", "T1 sequence (whole entry)": "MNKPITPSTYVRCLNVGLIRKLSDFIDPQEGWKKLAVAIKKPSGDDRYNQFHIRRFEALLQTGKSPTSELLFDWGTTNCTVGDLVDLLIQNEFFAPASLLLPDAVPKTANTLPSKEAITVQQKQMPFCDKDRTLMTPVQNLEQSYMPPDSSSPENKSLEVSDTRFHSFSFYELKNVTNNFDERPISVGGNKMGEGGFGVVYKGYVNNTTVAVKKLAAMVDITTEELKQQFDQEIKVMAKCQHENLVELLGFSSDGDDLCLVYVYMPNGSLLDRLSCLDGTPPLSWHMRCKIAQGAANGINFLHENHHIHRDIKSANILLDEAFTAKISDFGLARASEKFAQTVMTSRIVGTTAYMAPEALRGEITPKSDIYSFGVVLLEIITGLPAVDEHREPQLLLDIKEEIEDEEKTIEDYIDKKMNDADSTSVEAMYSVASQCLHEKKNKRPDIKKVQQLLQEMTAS", "assay": "Inhibition of IRAK4 conserved Lys1 (GYVNNTTVAVKK) in human PBMC at 1 uM"}, "[3]": {"molecular_target": "Interleukin-1 receptor-associated kinase 1 (Homo sapiens) (UniProt P51617)", "sequence (P51617 whole entry, looked up)": "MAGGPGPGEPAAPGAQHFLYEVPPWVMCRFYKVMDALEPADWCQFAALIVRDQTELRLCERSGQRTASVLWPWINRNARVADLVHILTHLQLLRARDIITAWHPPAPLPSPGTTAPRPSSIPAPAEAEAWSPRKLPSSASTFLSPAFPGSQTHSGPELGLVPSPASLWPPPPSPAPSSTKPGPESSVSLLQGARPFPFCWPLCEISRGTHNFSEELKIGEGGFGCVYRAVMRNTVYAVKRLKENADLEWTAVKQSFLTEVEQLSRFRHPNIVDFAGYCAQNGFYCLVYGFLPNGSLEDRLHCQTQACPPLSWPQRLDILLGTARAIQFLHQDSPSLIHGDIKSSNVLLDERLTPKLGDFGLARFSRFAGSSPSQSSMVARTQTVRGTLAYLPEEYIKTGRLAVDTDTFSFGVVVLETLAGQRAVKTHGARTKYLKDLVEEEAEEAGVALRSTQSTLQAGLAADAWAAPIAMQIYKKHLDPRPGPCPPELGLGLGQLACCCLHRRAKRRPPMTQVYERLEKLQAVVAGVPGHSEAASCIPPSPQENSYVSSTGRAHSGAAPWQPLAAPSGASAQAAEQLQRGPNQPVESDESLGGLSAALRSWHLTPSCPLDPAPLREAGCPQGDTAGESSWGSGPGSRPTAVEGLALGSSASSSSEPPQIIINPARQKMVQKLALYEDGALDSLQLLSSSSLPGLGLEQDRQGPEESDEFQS", "assay": "Inhibition of IRAK1 conserved Lys2 (AIQFLHQDSPSLIHGDIKSSNVLLDER) in human PBMC at 0.1 uM"}, "[4]": {"molecular_target": "T2, Serine/threonine-protein kinase 4 (Homo sapiens) (UniProt Q13043)", "T2 sequence (whole entry)": "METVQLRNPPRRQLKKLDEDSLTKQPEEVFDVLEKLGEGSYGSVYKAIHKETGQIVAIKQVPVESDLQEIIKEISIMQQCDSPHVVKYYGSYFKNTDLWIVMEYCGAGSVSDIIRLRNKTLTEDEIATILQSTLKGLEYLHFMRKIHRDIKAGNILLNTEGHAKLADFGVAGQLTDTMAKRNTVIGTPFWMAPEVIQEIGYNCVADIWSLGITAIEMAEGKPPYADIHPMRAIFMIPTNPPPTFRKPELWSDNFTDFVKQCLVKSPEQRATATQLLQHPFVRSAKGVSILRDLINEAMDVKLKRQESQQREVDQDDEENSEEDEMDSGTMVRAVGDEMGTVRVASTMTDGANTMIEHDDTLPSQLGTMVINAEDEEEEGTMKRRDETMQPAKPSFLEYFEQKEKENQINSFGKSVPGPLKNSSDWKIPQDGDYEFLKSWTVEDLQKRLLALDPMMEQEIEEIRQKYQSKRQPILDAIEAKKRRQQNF", "assay": "Inhibition of MST1 conserved Lys1 ETGQIVAIKQVPVESDLQEIIK in human PBMC at 0.1 uM"}, "[5]": {"molecular_target": "Mitogen-activated protein kinase 13 (Homo sapiens) (UniProt O15264)", "sequence (O15264 whole entry)": "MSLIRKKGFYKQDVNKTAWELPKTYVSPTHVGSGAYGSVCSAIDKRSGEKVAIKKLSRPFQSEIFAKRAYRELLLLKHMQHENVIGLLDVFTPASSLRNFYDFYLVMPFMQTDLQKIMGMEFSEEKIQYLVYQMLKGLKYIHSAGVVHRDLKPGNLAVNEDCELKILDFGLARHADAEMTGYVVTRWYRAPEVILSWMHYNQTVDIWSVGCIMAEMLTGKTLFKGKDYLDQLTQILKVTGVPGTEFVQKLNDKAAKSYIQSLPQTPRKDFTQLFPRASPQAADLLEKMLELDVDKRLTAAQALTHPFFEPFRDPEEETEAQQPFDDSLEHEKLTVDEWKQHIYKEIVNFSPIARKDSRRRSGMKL", "assay": "Inhibition of p38d conserved Lys2 (DLKPGNLAVNEDCELK) in human PBMC at 0.1 uM"}, "[6]": {"molecular_target": "T3, Serine/threonine-protein kinase ULK3 (Homo sapiens) (UniProt Q6PHR2)", "T3 sequence (whole entry)": "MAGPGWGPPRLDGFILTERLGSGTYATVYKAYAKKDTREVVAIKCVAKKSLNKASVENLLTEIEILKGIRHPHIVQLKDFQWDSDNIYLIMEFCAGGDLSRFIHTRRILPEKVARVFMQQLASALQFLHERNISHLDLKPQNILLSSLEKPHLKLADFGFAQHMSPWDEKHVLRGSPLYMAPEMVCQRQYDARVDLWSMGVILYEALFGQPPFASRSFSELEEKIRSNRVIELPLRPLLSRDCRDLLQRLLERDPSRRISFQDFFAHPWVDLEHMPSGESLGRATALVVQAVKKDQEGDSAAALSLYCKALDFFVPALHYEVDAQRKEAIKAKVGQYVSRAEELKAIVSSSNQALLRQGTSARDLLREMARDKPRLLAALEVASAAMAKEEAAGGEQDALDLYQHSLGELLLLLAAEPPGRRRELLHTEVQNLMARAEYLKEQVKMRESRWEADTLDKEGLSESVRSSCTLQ", "assay": "Inhibition of ULK3 conserved Lys1 (EVVAIKCVAK) in human PBMC at 0.1 uM"}}, "data": [{"smiles": "CC(C)n1cc(-c2cc(-c3ccc(CN4CCOCC4)cc3)cnc2N)nn1", "values": [{"measurement": "inhibition", "setting": "[1]", "result": -2.3, "unit": "%"}, {"measurement": "inhibition", "setting": "[2]", "result": 5, "unit": "%"}, {"measurement": "inhibition", "setting": "[3]", "result": 22.7, "unit": "%"}, {"measurement": "inhibition", "setting": "[4]", "result": -6.6, "unit": "%"}, {"measurement": "inhibition", "setting": "[5]", "result": 26.4, "unit": "%"}, {"measurement": "inhibition", "setting": "[6]", "result": 20.3, "unit": "%"}]}]}
